Experimental data from patent US6693216B2, “Calcium double salts” (Nutrinova Nutrition Specialties & Food Ingredients GmbH, priority 2000, dated 2004).
Read-outs that look alike come from different tables or passages of the source.

Key:
Conditions in all cases: Part I, 1 g/l in apple juice pH 4.5, 25° C.
Gram-negative bacteria = system: Gram-negative bacteria
Acetic acid bacteria = system: Acetic acid bacteria
Bacilli = system: Bacilli
Clostridia = system: Clostridia
Yeasts = system: Yeasts
Gram-positive bacteria = system: Gram-positive bacteria
Thermophilic bacilli = system: Thermophilic bacilli
Lactic acid bacteria = system: Lactic acid bacteria
Molds I = system: Molds I

C/C=C/C=C/C(=O)[O-].[K+] [Potassium Sorbate]
Number of surviving microorganisms per g of contaminated sample, Gram-negative bacteria (Gram-negative bacteria; 1 day after inoculation (2.4 × 10^4)): 2.9 × 10^4 CFU/g
Number of surviving microorganisms per g of contaminated sample, Gram-negative bacteria (Gram-negative bacteria; 3 days after inoculation (2.4 × 10^4)): 1.5 × 10^3 CFU/g
Number of surviving microorganisms per g of contaminated sample, Gram-negative bacteria (Gram-negative bacteria; 7 days after inoculation (2.4 × 10^4)): 350 CFU/g
Number of surviving microorganisms per g of contaminated sample, Gram-negative bacteria (Gram-negative bacteria; 14 days after inoculation (2.4 × 10^4)): <10 CFU/g
Number of surviving microorganisms per g of contaminated sample, Acetic acid bacteria (Acetic acid bacteria; 1 day after inoculation (2.3 × 10^4)): 1.7 × 10^4 CFU/g
Number of surviving microorganisms per g of contaminated sample, Acetic acid bacteria (Acetic acid bacteria; 3 days after inoculation (2.3 × 10^4)): 4.3 × 10^5 CFU/g
Number of surviving microorganisms per g of contaminated sample, Acetic acid bacteria (Acetic acid bacteria; 7 days after inoculation (2.3 × 10^4)): 1.3 × 10^3 CFU/g
Number of surviving microorganisms per g of contaminated sample, Acetic acid bacteria (Acetic acid bacteria; 14 days after inoculation (2.3 × 10^4)): 2.7 × 10^5 CFU/g
Number of surviving microorganisms per g of contaminated sample, Bacilli (Bacilli; 1 day after inoculation (1.5 × 10^4)): 1.4 × 10^3 CFU/g
Number of surviving microorganisms per g of contaminated sample, Bacilli (Bacilli; 3 days after inoculation (1.5 × 10^4)): (<100) CFU/g
Number of surviving microorganisms per g of contaminated sample, Bacilli (Bacilli; 7 days after inoculation (1.5 × 10^4)): 1.4 × 10^3 CFU/g
Number of surviving microorganisms per g of contaminated sample, Bacilli (Bacilli; 14 days after inoculation (1.5 × 10^4)): 1.3 × 10^3 CFU/g
Number of surviving microorganisms per g of contaminated sample, Clostridia (Clostridia; 1 day after inoculation (1.4 × 10^4)): 1.1 × 10^3 CFU/g
Number of surviving microorganisms per g of contaminated sample, Clostridia (Clostridia; 3 days after inoculation (1.4 × 10^4)): 450 CFU/g
Number of surviving microorganisms per g of contaminated sample, Clostridia (Clostridia; 7 days after inoculation (1.4 × 10^4)): 160 CFU/g
Number of surviving microorganisms per g of contaminated sample, Clostridia (Clostridia; 14 days after inoculation (1.4 × 10^4)): 250 CFU/g
Number of surviving microorganisms per g of contaminated sample, Yeasts (Yeasts; 1 day after inoculation (2.5 × 10^4)): 2.7 × 10^5 CFU/g
Number of surviving microorganisms per g of contaminated sample, Yeasts (Yeasts; 3 days after inoculation (2.5 × 10^4)): 1.1 × 10^4 CFU/g
Number of surviving microorganisms per g of contaminated sample, Yeasts (Yeasts; 7 days after inoculation (2.5 × 10^4)): 6.0 × 10^2 CFU/g
Number of surviving microorganisms per g of contaminated sample, Yeasts (Yeasts; 14 days after inoculation (2.5 × 10^4)): <10 CFU/g
Number of surviving microorganisms per g of contaminated sample, Gram-positive bacteria (Gram-positive bacteria; 1 day after inoculation (2.6 × 10^4)): 5.5 × 10^4 CFU/g
Number of surviving microorganisms per g of contaminated sample, Gram-positive bacteria (Gram-positive bacteria; 3 days after inoculation (2.6 × 10^4)): 7.0 × 10^3 CFU/g
Number of surviving microorganisms per g of contaminated sample, Gram-positive bacteria (Gram-positive bacteria; 7 days after inoculation (2.6 × 10^4)): <100 CFU/g
Number of surviving microorganisms per g of contaminated sample, Gram-positive bacteria (Gram-positive bacteria; 14 days after inoculation (2.6 × 10^4)): <10 CFU/g
Number of surviving microorganisms per g of contaminated sample, Thermophilic bacilli (Thermophilic bacilli; 1 day after inoculation (1.3 × 10^4)): 1.6 × 10^3 CFU/g
Number of surviving microorganisms per g of contaminated sample, Thermophilic bacilli (Thermophilic bacilli; 3 days after inoculation (1.3 × 10^4)): 900 CFU/g
Number of surviving microorganisms per g of contaminated sample, Thermophilic bacilli (Thermophilic bacilli; 7 days after inoculation (1.3 × 10^4)): <100 CFU/g
Number of surviving microorganisms per g of contaminated sample, Thermophilic bacilli (Thermophilic bacilli; 14 days after inoculation (1.3 × 10^4)): <10 CFU/g
Number of surviving microorganisms per g of contaminated sample, Lactic acid bacteria (Lactic acid bacteria; 1 day after inoculation (1.9 × 10^4)): 1.3 × 10^4 CFU/g
Number of surviving microorganisms per g of contaminated sample, Lactic acid bacteria (Lactic acid bacteria; 3 days after inoculation (1.9 × 10^4)): 1.2 × 10^6 CFU/g
Number of surviving microorganisms per g of contaminated sample, Lactic acid bacteria (Lactic acid bacteria; 7 days after inoculation (1.9 × 10^4)): 1.7 × 10^6 CFU/g
Number of surviving microorganisms per g of contaminated sample, Lactic acid bacteria (Lactic acid bacteria; 14 days after inoculation (1.9 × 10^4)): 1.2 × 10^7 CFU/g
Number of surviving microorganisms per g of contaminated sample, Molds I (Molds I; 1 day after inoculation (1.7 × 10^4)): 5.0 × 10^4 CFU/g
Number of surviving microorganisms per g of contaminated sample, Molds I (Molds I; 3 days after inoculation (1.7 × 10^4)): <100 CFU/g
Number of surviving microorganisms per g of contaminated sample, Molds I (Molds I; 7 days after inoculation (1.7 × 10^4)): <10 CFU/g
Number of surviving microorganisms per g of contaminated sample, Molds I (Molds I; 14 days after inoculation (1.7 × 10^4)): <10 CFU/g
